Results from US9072734B2, “Quaternary ammonium salt compounds” (Teijin Pharma Limited, priority 2009, dated 2015).
Counter-ions that a name gives are not always drawn.

How the values were obtained:
[1] = biological target: T1, human β2 adrenergic receptor (Homo sapiens, UniProt P07550); experiment: Whole-cell cAMP Flashplate assay using CHO-K1 cells stably expressing human β2 adrenergic receptor; assay type: cell-based; conditions: cAMP production
T1 construct: expressed in transfected cells; host or cells: CHO-K1
T1 sequence (P07550 whole entry): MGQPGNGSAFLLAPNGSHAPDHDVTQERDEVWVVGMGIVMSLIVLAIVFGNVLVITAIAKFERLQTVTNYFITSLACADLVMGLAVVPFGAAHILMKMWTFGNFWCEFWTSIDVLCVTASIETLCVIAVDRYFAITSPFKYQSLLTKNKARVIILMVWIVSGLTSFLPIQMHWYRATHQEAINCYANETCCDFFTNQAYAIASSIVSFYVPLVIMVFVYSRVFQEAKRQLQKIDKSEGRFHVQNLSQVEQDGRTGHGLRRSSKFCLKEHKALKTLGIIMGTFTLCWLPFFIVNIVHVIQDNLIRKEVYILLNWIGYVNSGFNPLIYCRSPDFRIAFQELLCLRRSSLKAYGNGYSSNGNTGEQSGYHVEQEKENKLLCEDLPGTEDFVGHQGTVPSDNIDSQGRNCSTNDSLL
Protocol: The β2 adrenergic receptor, which couples to Gs proteins, activates adenylate cyclase upon agonist binding to the receptor. As a result, cAMP is produced in cells. The activation ability of the β2 adrenergic receptor can be measured by measuring the amount of the cAMP with cAMP-Screen System (Applied Biosystems).
CHO-K1 cells expressing the human β2 adrenergic receptor suspended in Ham's F-12 media containing 10% FBS were seeded into 96-well plates at a volume of 100 μL/well. Next day, they were washed with 200 μL PBS(−), to which 80 μL of 0.5 mM IBMX solution (Ham's F-12 media containing 0.05% BSA) was then added, followed by incubation for 20 minutes at 37° C. in the presence of 5% carbon dioxide. 20 μL of 9 concentrations of test compound solutions (0.5 mM IBMX solution containing 1% DMSO) prepared at concentrations in a range of 0.01-1000 nM with 2-fold serial dilution) were added, followed by incubation for 20 minutes at 37° C. in the presence of 5% carbon dioxide. Then, 100 μL of Assay/Lysis Buffer (a reagent that comes with cAMP Screen System) was added. The cells were lysed by pipetting, further incubated for 30 minutes at 37° C., and then frozen at −80° C. After several days, samples, thawed at room temperature, were treated according to the protocol of cAMP Screen System, and then chemiluminescence was measured by EnVision (PerkinElmer, Inc.). The amount of cAMP was calculated from the standard curve for the standard attached to cAMP Screen System.
The concentrations of a test compound at which 50% of its maximal effect is reached (EC50 values) were analyzed by a four-parameter logistic model using XLfit4 (IDBS, Ltd.) for the amounts of cAMP production at different concentrations of the test compounds.

[2] = biological target: T2, human M3 muscarinic receptor (Homo sapiens, UniProt P20309); experiment: Inhibitory effect on methacholine-induced calcium influx, FLIPR assay, CHO-K1 cells stably expressing the human M3 muscarinic receptor; assay type: cell-based; conditions: inhibition of calcium influx induced by methacholine
T2 construct: expressed in transfected cells; host or cells: CHO-K1
T2 sequence (P20309 whole entry): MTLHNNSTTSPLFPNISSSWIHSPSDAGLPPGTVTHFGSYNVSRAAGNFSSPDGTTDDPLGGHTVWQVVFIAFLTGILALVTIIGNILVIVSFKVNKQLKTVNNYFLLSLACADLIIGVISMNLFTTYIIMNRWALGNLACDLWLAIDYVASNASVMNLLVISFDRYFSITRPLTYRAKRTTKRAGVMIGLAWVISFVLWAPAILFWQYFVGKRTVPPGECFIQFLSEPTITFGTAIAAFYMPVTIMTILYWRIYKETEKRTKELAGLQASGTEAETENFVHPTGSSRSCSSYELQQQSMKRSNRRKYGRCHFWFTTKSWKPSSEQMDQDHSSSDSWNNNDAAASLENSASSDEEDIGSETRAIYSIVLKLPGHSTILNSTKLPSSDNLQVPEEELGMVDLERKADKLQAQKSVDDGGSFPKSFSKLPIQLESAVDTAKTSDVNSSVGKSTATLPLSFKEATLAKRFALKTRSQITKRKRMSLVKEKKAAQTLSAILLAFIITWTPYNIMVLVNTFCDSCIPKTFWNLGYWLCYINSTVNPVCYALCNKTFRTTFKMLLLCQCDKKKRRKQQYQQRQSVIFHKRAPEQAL
Excerpt: Muscarinic receptor subtypes (M1, M3 and M5 receptors), which couple to Gq proteins, activate the phospholipase C (PLC) pathway upon agonist binding to the receptor. As a result, the activated PLC hydrolyzes phosphatidyl inositol diphosphate (PIP2) to diacyl glycerol (DAG) and […] (IP3), which in turn generates calcium release from intracellular stores, i.e., endoplasmic and sarcoplasmic reticula. By utilizing FLIPR (Molecular Devices, Inc.) assay in which a calcium sensitive dye (Component A) is used that fluoresces when free calcium binds, the increase in intracellular calcium is measured on the basis of the change in the fluorescence intensity.
Methacholine was added to CHO-K1 cells stably expressing the human M3 muscarinic receptor to induce calcium influx and evaluate the inhibitory effect of test compounds. In the experiment, a FLIPR Calcium assay kit (Molecular Devices, Inc.) was used.
CHO-K1 cells stably expressing the human M3 muscarinic receptor suspended in Ham's F-12 media (Invitrogen, Co.) containing 10% fetal bovine serum (FBS) were seeded into 96-well FLIPR plates at a volume of 100 μL/well. Next day, 60 μL/well of Non-wash-dye solution (Hank's buffered salt solution, HBSS, containing 20 mM HEPES and 6.5 mM probenecid) was added to the cells, which were then incubated for an hour at 37° C. in the presence of 5% carbon dioxide. 20 μL of 10 concentrations of test compound solutions (HBSS containing 1% DMSO, 20 mM HEPES, 2.5 mM probenecid and 0.05% bovine serum albumin, BSA) prepared at concentrations in a range of 0.01-1000 nM with 2-fold serial dilution) were added, followed by incubation for 180 seconds. Then, 20 μL of 30 nM methacholine solution (HBSS containing 20 mM HEPES, 2.5 mM probenecid and 0.05% bovine serum albumin, BSA) was added, and fluorescence intensity was traced by the intracellular calcium influx measuring device FLIPR 96 (Molecular Devices, Inc.) for 170 seconds. The difference between the lowest and the highest values of the fluorescence intensity (FI) over the period of the measurement was used as a measured value. The percentages of inhibition by the test compounds were calculated according to the following formula from the measured value of the methacholin-added and test compound non-added sample (FIpositive), the measured value of the methacholin non-added and test compound non-added sample (FInegative), and the measured value of the methacholin-added and test compound-added sample (FItest). (%) Percentage of inhibition by test compound=[(1−(FItest−FInegative)/(FIpositive−FInegative)]×100
The 50% inhibitory concentrations (IC50 values) of test compounds were analyzed by a four-parameter logistic model using XLfit4 (IDBS, Ltd.) for the percentage of the inhibition by different concentrations of test compounds.

SMILES | EC50 [1] [nM] | IC50 [2] [nM]
C[N+]1(C)CCC(OC(=O)Nc2cc(CCC(=O)Nc3cc(F)c(CNC[C@H](O)c4ccc(O)c5[nH]c(=O)ccc45)cc3F)ccc2-c2ccccc2)CC1 [Example 5, 4-({[5-(2-{[2,5-difluoro-4-({[(2R)-2-hydroxy-2-(8-hydroxy-2-oxo-1,2-dihydroquinolin-5-yl)ethyl]amino}methyl)phenyl]carbamoyl}ethyl)-2-phenylphenyl]carbamoyl}oxy)-1,1-dimethylpiperidin-1-ium trifluoroacetate] | 8.2 | 19.2
C[N+]1(C)CCC(OC(=O)Nc2cc(CCC(=O)Nc3ccc(CNC[C@H](O)c4ccc(O)c5[nH]c(=O)ccc45)c(F)c3)ccc2-c2ccccc2)CC1 [Example 7, 4-({[5-(2-{[3-fluoro-4-({[(2R)-2-hydroxy-2-(8-hydroxy-2-oxo-1,2-dihydroquinolin-5-yl)ethyl]amino}methyl)phenyl]carbamoyl}ethyl)-2-phenylphenyl]carbamoyl}oxy)-1,1-dimethylpiperidin-1-ium trifluoro acetate] | 5.1 | 14.5
Cc1cc(NC(=O)CCc2ccc(-c3ccccc3)c(NC(=O)OC3CC[N+](C)(C)CC3)c2)ccc1CNC[C@H](O)c1ccc(O)c2[nH]c(=O)ccc12 [Example 8, 4-({[5-(2-{[4-({[(2R)-2-hydroxy-2-(8-hydroxy-2-oxo-1,2-dihydroquinolin-5-yl)ethyl]amino}methyl)-3-methylphenyl]carbamoyl}ethyl)-2-phenylphenyl]carbamoyl}oxy)-1,1-dimethylpiperidin-1-ium trifluoroacetate] | 5.1 | 13.5
C[N+]1(C)CCC(OC(=O)Nc2cc(CCC(=O)Nc3ccc(CNC[C@H](O)c4ccc(O)c5[nH]c(=O)ccc45)cc3Cl)ccc2-c2ccccc2)CC1 [Example 9, 4-({[5-(2-{[2-chloro-({[(2R)-2-hydroxy-2-(8-hydroxy-2-oxo-1,2-dihydroquinolin-5-yl)ethyl]amino}methyl)phenyl]carbamoyl}ethyl)-2-phenylphenyl]carbamoyl}oxy)-1,1-dimethylpiperidin-1-ium trifluoroacetate] | 1.9 | 10.1
COc1cc(CNC[C@H](O)c2ccc(O)c3[nH]c(=O)ccc23)ccc1NC(=O)CCc1ccc(-c2ccccc2)c(NC(=O)OC2CC[N+](C)(C)CC2)c1 [Example 10, 4-({[5-(2-{[4-({[(2R)-2-hydroxy-2-(8-hydroxy-2-oxo-1,2-dihydroquinolin-5-yl)ethyl]amino}methyl)-2-methoxyphenyl]carbamoyl}ethyl)-2-phenylphenyl]carbamoyl}oxy)-1,1-dimethylpiperidin-1-ium trifluoroacetate] | 3.9 | 10.5
Cc1cc(CNC[C@H](O)c2ccc(O)c3[nH]c(=O)ccc23)ccc1NC(=O)CCc1ccc(-c2ccccc2)c(NC(=O)OC2CC[N+](C)(C)CC2)c1 [Example 11, 4-({[5-(2-{[4-({[(2R)-2-hydroxy-2-(8-hydroxy-2-oxo-1,2-dihydroquinolin-5-yl)ethyl]amino}methyl)-2-methylphenyl]carbamoyl}ethyl)-2-phenylphenyl]carbamoyl}oxy)-1,1-dimethylpiperidin-1-ium trifluoroacetate] | 3.7 | 9.7
C[N+]1(C)CCC(OC(=O)Nc2cc(CCC(=O)Nc3ccc(CNC[C@H](O)c4ccc(O)c5[nH]c(=O)ccc45)cn3)ccc2-c2ccccc2)CC1 [Example 17, 4-({[5-(2-{[5-({[(2R)-2-hydroxy-2-(8-hydroxy-2-oxo-1,2-dihydroquinolin-5-yl)ethyl]amino}methyl)pyridin-2-yl]carbamoyl}ethyl)-2-phenylphenyl]carbamoyl}oxy)-1,1-dimethylpiperidin-1-ium trifluoroacetate] | 5.9 | 11.4
